Literature values as cited in PMC7797289 (Drug Design, Development and Therapy, 2021).

How the values were obtained:
[1] = tested on: breast cancer metastasis; conditions: in vivo test
[2] = target: uPA; conditions: read-out: Ki (inhibitory constant); uPA inhibitor
[3] = tested on: lung cancer; conditions: lung cancer animal model

SMILES | breast cancer metastasis [1] | Ki [2] [nM] | anti-tumor efficacy [3]
CCCNC(=O)[C@H]1O[C@@H]1C(=O)N[C@H](C(=O)N1CCC[C@H]1C(=O)O)[C@@H](C)CC [CA-074] | reduced breast cancer metastasis |  | 
N=C(N)c1ccc(CNC(=O)[C@H](CO)NC(=O)[C@@H](CO)NS(=O)(=O)Cc2ccccc2)cc1 [CJ-463, benzylsulfonyl-D-Ser-Ser-4- amidinobenzylamide] |  | 20 | good anti-tumor efficacy
CN(C)C(=O)[C@H](Cc1ccccc1)NC(=O)[C@H]1O[C@@H]1C(=O)NCCc1ccccn1 [CLIK-148] | reduced breast cancer metastasis |  | 
